Test results published in article PMC4942689, “Deciphering the function of the CNGB1b subunit in olfactory CNG channels” (Scientific Reports, 2016).
Several values for one entry are separate records, joined by “and”; a condition that tells them apart may be missing. Identical values can stand only once. Like-named read-outs stand apart in the source and are kept apart here.

How the values were obtained:
[1] = system: homotetrameric CNGA2RE (R538E) channels; design: method as in Nache et al., 2012; details: Equation 1, ref Nache et al., 2012; cited from earlier work
CNGA2:B1b channels = molecular target: T1, CNGA2:B1b channels (Rattus norvegicus, UniProt A0A8I5ZN27+Q00195); test: Concentration-activation relationship, inside-out patch-clamp; assay type: biochemical
T1 construct: expressed in transfected cells; host or cells: Xenopus laevis oocytes (cRNA injection), excised inside-out patches
T1 sequence (Q00195 whole entry): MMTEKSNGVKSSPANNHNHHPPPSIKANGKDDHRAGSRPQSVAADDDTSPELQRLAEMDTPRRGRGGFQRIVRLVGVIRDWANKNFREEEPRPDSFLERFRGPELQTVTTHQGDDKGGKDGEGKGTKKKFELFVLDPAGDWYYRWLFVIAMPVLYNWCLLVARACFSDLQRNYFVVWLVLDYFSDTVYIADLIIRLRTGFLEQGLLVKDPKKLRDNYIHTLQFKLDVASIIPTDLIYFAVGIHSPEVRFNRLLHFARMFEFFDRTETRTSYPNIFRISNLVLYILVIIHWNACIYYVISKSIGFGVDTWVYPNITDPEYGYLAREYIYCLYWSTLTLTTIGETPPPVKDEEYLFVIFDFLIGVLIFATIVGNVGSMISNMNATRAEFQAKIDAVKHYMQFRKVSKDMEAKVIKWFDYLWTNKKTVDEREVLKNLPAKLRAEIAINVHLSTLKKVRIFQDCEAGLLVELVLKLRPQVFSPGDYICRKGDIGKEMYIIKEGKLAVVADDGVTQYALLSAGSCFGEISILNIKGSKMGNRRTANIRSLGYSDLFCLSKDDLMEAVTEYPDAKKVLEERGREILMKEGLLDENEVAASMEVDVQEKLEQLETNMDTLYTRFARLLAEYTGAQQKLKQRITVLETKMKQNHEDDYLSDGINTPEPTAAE
T1 sequence (A0A8I5ZN27 1-858 isoform A0A8I5ZN27-2): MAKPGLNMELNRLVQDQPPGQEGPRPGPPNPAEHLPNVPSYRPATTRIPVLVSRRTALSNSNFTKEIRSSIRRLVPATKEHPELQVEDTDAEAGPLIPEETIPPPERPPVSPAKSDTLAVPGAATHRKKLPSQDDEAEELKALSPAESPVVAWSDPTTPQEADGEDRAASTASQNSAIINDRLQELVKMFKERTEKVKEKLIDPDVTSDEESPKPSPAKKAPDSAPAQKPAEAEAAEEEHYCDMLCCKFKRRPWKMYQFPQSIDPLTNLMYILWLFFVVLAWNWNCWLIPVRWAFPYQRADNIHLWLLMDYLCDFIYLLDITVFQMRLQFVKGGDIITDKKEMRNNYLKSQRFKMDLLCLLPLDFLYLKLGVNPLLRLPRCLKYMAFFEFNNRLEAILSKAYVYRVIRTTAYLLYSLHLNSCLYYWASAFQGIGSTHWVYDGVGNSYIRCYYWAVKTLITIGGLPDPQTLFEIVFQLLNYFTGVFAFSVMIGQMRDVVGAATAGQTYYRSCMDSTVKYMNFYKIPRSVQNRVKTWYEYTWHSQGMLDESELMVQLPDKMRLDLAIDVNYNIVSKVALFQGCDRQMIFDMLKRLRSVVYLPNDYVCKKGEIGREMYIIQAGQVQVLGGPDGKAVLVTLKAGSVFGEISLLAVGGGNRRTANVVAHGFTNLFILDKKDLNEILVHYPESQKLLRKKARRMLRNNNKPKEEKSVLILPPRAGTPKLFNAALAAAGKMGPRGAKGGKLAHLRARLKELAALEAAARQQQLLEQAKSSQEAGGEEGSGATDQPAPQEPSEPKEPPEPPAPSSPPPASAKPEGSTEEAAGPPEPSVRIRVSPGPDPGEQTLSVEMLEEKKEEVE
Protocol: Patch-clamp experiments were performed using an Axopatch 200B amplifier (Molecular Devices LLC, CA, U.S.A.) in the inside-out configuration. The patch pipettes for recording of macroscopic currents were pulled from borosilicate glass tubing (outer diameter 2.0 mm, inner diameter 1.0 mm; Hilgenberg GmbH, Germany). […] The patches were formed as pushed inside-out patches. […] Cyclic nucleotide concentration jumps were performed using a double-barreled glass pipette mounted on a piezo-driven device. Intracellular (bath) and extracellular (pipette) solutions contained (mM) 150 KCl, 1 EGTA, 5 Hepes, pH = 7.4 with KOH. […] Currents in the absence of the cyclic nucleotide were subtracted. All patches included in this study were first tested for channel expression in the presence of a saturating ligand concentration. Only patches with large current, i.e. a large number of channels, were included in our statistics. The currents were measured at +10 mV or, if mentioned, at +100 mV. Fits of equations to data points were performed with the 8.1G® software (OriginLab Corporation, Northampton, U.S.A.). Concentration-activation relationships were obtained by relating the actual current amplitude, I, to the maximum current amplitude elicited by a saturating concentration of ligand, Imax, and plotting this ratio as function of the ligand concentration, x. The concentration-activation data were fitted using the Hill equation where EC50 is the ligand concentration of half maximum effect and H the Hill coefficient.

CNGA2:A4:B1b channels = molecular target: T2, CNGA2:A4:B1b channels (Rattus norvegicus, UniProt A0A8I5ZN27+Q00195+Q64359); test: Activation and deactivation time courses after fast concentration jumps; assay type: biochemical; details: +10 mV, monoexponential fit
T2 construct: expressed in transfected cells; host or cells: Xenopus laevis oocytes (cRNA injection 2:1:1), excised inside-out patches
T2 sequence (Q00195 whole entry): as the sequence (Q00195 whole entry) above
T2 sequence (Q64359 whole entry): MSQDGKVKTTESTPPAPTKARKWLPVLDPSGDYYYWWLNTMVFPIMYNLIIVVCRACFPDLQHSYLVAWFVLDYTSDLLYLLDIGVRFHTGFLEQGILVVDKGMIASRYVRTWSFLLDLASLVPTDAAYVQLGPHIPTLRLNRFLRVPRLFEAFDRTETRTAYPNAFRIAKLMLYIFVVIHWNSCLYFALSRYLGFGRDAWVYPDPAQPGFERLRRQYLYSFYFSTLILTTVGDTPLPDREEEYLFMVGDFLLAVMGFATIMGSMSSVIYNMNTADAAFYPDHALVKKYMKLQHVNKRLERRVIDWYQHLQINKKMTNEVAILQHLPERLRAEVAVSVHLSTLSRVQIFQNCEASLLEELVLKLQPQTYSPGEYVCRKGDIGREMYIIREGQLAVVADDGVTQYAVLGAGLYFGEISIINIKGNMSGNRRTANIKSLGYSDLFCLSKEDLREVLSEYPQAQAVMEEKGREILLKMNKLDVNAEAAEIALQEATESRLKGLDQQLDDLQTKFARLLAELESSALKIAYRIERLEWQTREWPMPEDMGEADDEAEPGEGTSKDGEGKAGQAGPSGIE
T2 sequence (A0A8I5ZN27 1-858 isoform A0A8I5ZN27-2): as the sequence (A0A8I5ZN27 1-858 isoform A0A8I5ZN27-2) above
Protocol: To characterize the contribution of each subunit to the kinetics of channel gating, we also studied activation and deactivation time courses for CNGA2:A4:B1b, CNGA2, CNGA2RE:A4RE:B1b and CNGA2RE:A4:B1b RE channels. Fast concentration jumps from zero to 10 μM cGMP and back to zero were applied with the help of a piezo-driven switch pipette. Activation (Fig. 4a) and deactivation (Fig. 4b) time courses were fitted with a single exponential or the sum of two exponential functions in case of the CNGA2RE:A4RE:B1b channel. The obtained time constants are shown in bar graphs below the traces. In case of the biexponential time courses a mean time constant was obtained according to equation (S1) (Supplementary Information). CNGA2RE:A4RE:B1b channel activation triggered by CNGB1b only is the slowest, followed by that of CNGA4 only in CNGA2RE:A4:B1bRE channels and homotetrameric CNGA2 channels.
Figure 4 Effects of the CNGB1b and CNGA4 subunit on the kinetics of channel activation and deactivation. […]
Patch-clamp experiments were performed using an Axopatch 200B amplifier (Molecular Devices LLC, CA, U.S.A.) in the inside-out configuration. […] The currents were measured at +10 mV or, if mentioned, at +100 mV.

[2] = molecular target: T3, CNGA2RE:A4:B1bRE channels (Rattus norvegicus, UniProt A0A8I5ZN27+Q00195+Q64359, R1106E/R538E); test: Concentration-activation relationship, patch-clamp; assay type: biochemical; details: for EC50: Equation 2, +100 mV
T3 construct: expressed in transfected cells; host or cells: Xenopus laevis oocytes (cRNA injection), excised inside-out patches
T3 sequence (Q00195 whole entry R538E): as the sequence (Q00195 whole entry) above, with R538E counted along it
T3 sequence (Q64359 whole entry): as the sequence (Q64359 whole entry) above
T3 sequence (A0A8I5ZN27 1-858 isoform A0A8I5ZN27-2 R657E): as the sequence (A0A8I5ZN27 1-858 isoform A0A8I5ZN27-2) above, with R657E counted along it
Protocol: In order to determine the apparent affinity of the modulatory subunits in heterotetrameric CNGA2:A4:B1b channels for cGMP, we coexpressed each of them with disabled neighbored subunits, generating themselves activation effects only at much higher ligand concentrations. In case of two well-separated current components, this would allow us to determine the EC50 value for the CNGB1b and CNGA4 subunit in functional heterotetrameric channels.
Patch-clamp experiments were performed using an Axopatch 200B amplifier (Molecular Devices LLC, CA, U.S.A.) in the inside-out configuration. The patch pipettes for recording of macroscopic currents were pulled from borosilicate glass tubing (outer diameter 2.0 mm, inner diameter 1.0 mm; Hilgenberg GmbH, Germany). The initial resistance was 0.7–1.3 MΩ. The patches were formed as pushed inside-out patches. […] Cyclic nucleotide concentration jumps were performed using a double-barreled glass pipette mounted on a piezo-driven device. Intracellular (bath) and extracellular (pipette) solutions contained (mM) 150 KCl, 1 EGTA, 5 Hepes, pH = 7.4 with KOH. […] Currents in the absence of the cyclic nucleotide were subtracted. All patches included in this study were first tested for channel expression in the presence of a saturating ligand concentration. Only patches with large current, i.e. a large number of channels, were included in our statistics. The currents were measured at +10 mV or, if mentioned, at +100 mV.
Fits of equations to data points were performed with the 8.1G® software (OriginLab Corporation, Northampton, U.S.A.). Concentration-activation relationships were obtained by relating the actual current amplitude, I, to the maximum current amplitude elicited by a saturating concentration of ligand, Imax, and plotting this ratio as function of the ligand concentration, x. The concentration-activation data were fitted using the Hill equation
For the concentration-activation relationships showing two components, the data points were fitted to the sum of two Hill equations according to
EC50,h, EC50,l, Hh, and Hl are the ligand concentration of half maximum current and the Hill coefficient for the high and low affinity component, respectively. a and (1-a) denote the contribution of the high and low affinity component, respectively.

CNGA4 = system: CNGA4; design: method as in Nache et al., 2012; key: +: ligand binding to the respective modulatory subunits was either observed or not; −: ligand binding to the respective modulatory subunits was either observed or not; details: 10 μM; construct CNGA4; ref Nache et al., 2012; cited from earlier work
CNGA2TM:A4 channels = system: CNGA2TM:A4 channels; design: method as in PMID 22786723; details: cited from earlier work

Molecule: Nc1nc2c(ncn2[C@@H]2O[C@@H]3COP(=O)(O)O[C@H]3[C@H]2O)c(=O)[nH]1 [cGMP]
- EC50 [1]: 607 µM
- EC50 (CNGA2:B1b channels; Equation 1): 1.9 µM
- H (CNGA2:B1b channels; Hill coefficient): 2.0
- deactivation time constant (CNGA2:A4:B1b channels; concentration jump from 10 μM back to zero): ~ 120 ms
- activation time constant (CNGA2:A4:B1b channels; concentration jump from zero to 10 μM): ~ 17 ms
- H1 ([2]; Hill coefficient of low affinity component, +100 mV): 1.1
- a (contribution of the high affinity component) ([2]; fraction, Equation 2): 0.24
- EC50 ([2]; high affinity component (action of CNGA4), read-out: EC50,h): 8.9 µM and 8.86 µM
- EC50 ([2]; low affinity component, read-out: EC50,l): 364 µM
- maximum contribution of CNGA4 to channel activation (a) ([2]; of the maximum channel activity generated by all subunits): 24.6% and ~ 24%

Molecule: 8-[DY-547]-AET-cGMP [fcGMP]
- Ligand binding to CNGA4 (CNGA4): −
- degree of activation induced by binding to CNGA4 (CNGA2TM:A4 channels; CNGA2TM:A4 channels): ~ 12%
- EC50 (CNGA2TM:A4 channels; in the presence of CNGA2TM only, read-out: EC50,h value for CNGA4): 6.8 µM
